# Patent publication US20090061005A1, “Paliperidone Polymorphs” (ACTAVIS GROUP PTC EHF, priority 2007, published 2009)
# “And” between values parts separate entries of the source, which are not always exact repeats. Equal entries are not always repeated.
# Tests used:
# [1] = Water (moisture) content of Form A2 by TGA; format: physicochemical
# Method: Thermogravimetric analysis (TGA) was performed with a NETZSCH STA 409C/CD instrument. The term “water content” refers to the content of water based upon the Loss on Drying method as described in Pharmacopeial Forum, Vol. 24, No. 1, page 5438 (January-February 1998). The calculation of water content is based upon the percent of weight that is lost by drying. For Form A2 the term “water content” refers to the content of water based upon a TGA measurement.
# [2] = Extended drying of Form A2 under vacuum (retention of hydrate water); format: physicochemical; details: drying for 12 hours at about 80° C. under vacuum
structure (smiles),measurement,setting,value
"Cc1nc2n(c(=O)c1CCN1CCC(c3noc4cc(F)ccc34)CC1)CCCC2O (racemic) [Form A2, (±)-3-[2-[4-(6-fluoro-1,2-benzisoxazol-3-yl)-1-piperidinyl]ethyl]-6,7,8,9-tetrahydro-9-hydroxy-2-methyl-4H-pyrido[1,2-a]pyrimidin-4-one]",water content,"[1]; Form A2 obtained by the process, stable and consistently reproducible",2.5-4 % w/w
same,Moisture content,[1]; isolated solid after drying under high vacuum at 60-70° C. for about 12 hours,4 % w/w and 2.7 % w/w
same,removal of moisture on extended drying,[2],moisture could not be removed
